Patent publication US12357598B2, “Treatment of neurodevelopmental disorders” (THE REGENTS OF THE UNIVERSITY OF CALIFORNIA, priority 2018, dated 2025)

How the values were obtained:
Assay type in all cases: in vivo, mouse
ddY mice [1] = test: Novel object recognition test (NORT), offspring after MIA
Procedure: Experiments of TPPU in drinking water. For experiment of TPPU (synthesized at UC Davis, CA) in drinking water in juvenile and adolescent stages, TPPU (15 mg/L) or water in drinking water was given in the male offspring from P28 to P56. Subsequently, normal water was given to all groups for 4 weeks (P57-P84). Behavioral tests of adult offspring were performed during adulthood (P70-P84) after prenatal poly(I:C) injections (FIG. 4A).
For experiment of TPPU in drinking water in pregnant stages, TPPU (15 mg/L) or water in drinking water was given in the pregnant mice from E12 to P21. Subsequently, normal water was given to all groups for […] (P21-P42). Behavioral tests of offspring were performed during juvenile stage (P28-P42) after prenatal poly(I:C) injections (FIG. 6A).
Novel Object Recognition Test (NORT): Mice were habituated for 10 minutes in the box for 3 straight days. At 4th day, two objects (differing in shape and color but of similar size) were placed in the box 35.5 cm apart (symmetrically), and each animal was allowed to explore in the box for 5 minutes. […] The time that mice spent exploring each object was recorded. […] The mice were then allowed to explore freely for 5 minutes, and the time spent exploring each object was recorded. […]

parvalbumin (PV) [2] = test: PV immunohistochemistry in mPFC, offspring after MIA; conditions: adult offspring of poly(I:C)-treated mice vs saline-treated group
Procedure: Immunohistochemistry. Immunohistochemistry of PV was performed as reported previously (37,39,59,60). Mice were anesthetized with 5% isoflurane and sodium pentobarbital (50 mg/kg), and perfused transcardially with 10 mL of physiological saline, followed by 40 mL of ice-cold 4% paraformaldehyde in 0.1M phosphate buffer (pH 7.4). Brains were removed from the skulls and post fixed overnight at 4° C. in the same fixative. For the immunohistochemical analysis, 50 μm-thick serial, coronal sections of brain tissue were cut in ice-cold 0.01M phosphate buffered saline (pH 7.5) using a vibrating blade microtome (VT1000s, Leica Microsystems, Tokyo, Japan). Free-floating sections were treated with 0.3% H2O2 in 50 mM Tris-HCl saline (TBS) for 30 min and were blocked in TBS containing 0.2% Triton X-100 (TBST) and 1.5% normal serum for 1 h at room temperature. […] The sections were imaged, and the staining intensity of PV (or GADO immunoreactivity in the inflalimbic (IL) and prelimbic (PrL) regions of mPFC was analyzed using a light micro-scope equipped with a CCD camera (Olympus IX70, Tokyo, Japan) and the SCION IMAGE software package. Images of sections within mPFC region were captured using a 100× objective with a Keyence BZ-X710 microscope (Keyence Corporation, Osaka, Japan).

gut microbiota = test: 16S rRNA analysis of fecal samples after maternal glyphosate exposure; conditions: juvenile offspring (P28)
Procedure: 16S rRNA analysis and measurement of short-chain fluty acids of fecal samples. On P28, we collected fresh fecal samples from each mouse at around 10:00 in order to avoid circadian effects on the microbiome. The fecal samples were put into a sterilized screw cap microtube immediately after defecation, and these samples were stored at −80° C. until use. DNA extraction from mouse feces and 16S rRNA analysis of fecal samples were performed by MyMetagenome Co, Ltd. (Tokyo, Japan), as reported previously (20,21).

ddY mice [3] = test: Short-chain fatty acids in fecal samples after maternal glyphosate exposure; conditions: offspring after maternal glyphosate exposure
Procedure: Measurement of short-chain fatty acids—acetic acid, propionic acid, butyric acid, and valeric acid—in fecal samples was performed by the TechnoSuruga Laboratory, Co., Ltd. (Shizuoka, Japan).

parvalbumin (PV) [4] = test: PV-immunohistochemistry in mPFC after maternal glyphosate exposure; conditions: juvenile offspring of maternal glyphosate exposure vs water treated group
Procedure: PV-immunohistochemistry. Immunohistochemistry of PV was performed as reported previously (7,13,16,17). Mice were anesthetized with 5% isoflurane and sodium pentobarbital (50 mg/kg), and perfused transcardially with 10 mL of saline, followed by 30 mL of ice-cold 4% paraformaldehyde in 0.1M phosphate buffer (pH 7.4). Brains were removed from the skulls and post fixed overnight at 4° C. in the same fixative. For the immunohistochemical analysis, 50 μm-thick serial, coronal sections of brain tissue were cut in ice-cold 0.01M phosphate buffered saline (pH 7.4) using a vibrating blade microtome (VT1000s, Leica Microsystems, Tokyo, Japan). Mounted on gelatinized slides brain sections were washed by PBS for three times and then blocked in PBS containing 0.3% Triton X-100 (PBST) and 3% normal serum for 1 h at room temperature. The samples were then incubated for 24 h at 4° C. with […] polyclonal anti-parvalbumin (PV) antibody (1:100, abcam, ab11427) in PBST with 1% normal serum. After that the sections were washed three times in PBS and then incubated for 2 h in room temperature with Alexa Fluor 488 Polyclonal Antibody (1:1000, Invitrogen, A11094). […] The PV-immunofluorescent-positive cells in the inflalimbic (IL) and prelimbic (PrL) regions (0.05 mm^2) of mPFC was analyzed using a fluorescence microscope with a CCD camera (Olympus IX70, Tokyo, Japan) and the SCION IMAGE software package. […]

Q: “polyriboinosinic-polyribocytidilic acid [Poly(I:C)]” was tested. Which “exploratory preference in NORT” value (ddY mice [1]; adult offspring after prenatal poly(I:C) exposure) did it give?
A: Decreased

Q: And the “exploratory preference, retention session of NORT” value (ddY mice [1]; juvenile offspring, poly(I:C)+water group vs saline+water group)?
A: significantly lower

Q: And the “PV-IR in the PrL of mPFC” value (parvalbumin (PV) [2])?
A: significantly lower

Q: Which results are given for `O=C(O)CNCP(=O)(O)O` [glyphosate]?
A: composition of gut microbiota (gut microbiota; maternal glyphosate exposure): abnormal composition; relative abundance of Clostridium sp. Clone-1, Enterorhabdus muris, Clostridium sp. Clone-46, and Butyricimonas virosa (gut microbiota; vs water-treated group): significantly higher; relative abundance of Eubacterium plexicaudatum, Lachnospiraceae bacterium 538, and Clostridium tertium (gut microbiota; vs water-treated group): significantly lower; levels of acetic acid in the fecal samples (ddY mice [3]): significantly increased; propionic acid, butyric acid, and valeric acid in fecal samples (ddY mice [3]): not different; PV-immunoreactivity in the prelimbic (PrL) of medial PFC (parvalbumin (PV) [4]): significantly lower
